Source: patent US20060189535A1, “Combination treatment using exendins and thiazolidinediones” (priority 2002, published 2006)

How the values were obtained:
[1] = test system: male ZDF rat; assay: Four weeks combination treatment of overtly diabetic male ZDF rats; HbA1c and 24-hour glucose profiles; assay type: in vivo; conditions: thiazolidinedione insulin sensitizer x mg/kg oral once daily + Exendin-4(1-39) xx μg/kg s.c. twice daily
Protocol: Synergistic effect of combining thiazolidinedione insulin sensitizer and exendin-4(1-39) on glucose and HbA1c, (glycosylated hemoglobin) in the male ZDF rat.
Male ZDF rats were used in the study. Before treatment start, measurements of glucose and HbA1c were performed. All animals were overtly diabetic at the beginning of the study. Animals were allocated into the following 4 treatment groups: • Group 1: Vehicle-1+Vehicle-2 • Group 2: thiazolidinedione insulin sensitizer, x mg/kg+Vehicle-2 (n=10) • Group 3: Vehicle-1+exendin-4(1-39), xx μg/kg • Group 4: thiazolidinedione insulin sensitizer, x mg/kg+exendin-4(1-39), xx μtg/kg
Thiazolidinedione insulin sensitizer and Vehicle-1 were administered by oral gavage once daily at approx. 07:30. Exendin-4(1-39) and Vehicle-2 were administered subcutaneously twice daily at approx. 07:30 and 14:30.
After four weeks treatment, HbA1c was measured and 24-hour glucose profiles were assessed.
The findings of group 1, 2, 3 and 4 are listed. Delta HbA1c values referring to the numerical difference between the measurement after treatment and the measurement before treatment are calculated. Glucose24 hAUc refers to the total area under the glucose concentration curve during the 24-hour period. A two-way analysis of variance are performed for each parameter and the significance of the interaction term evaluated.

[2] = test system: dogs; conditions: injected into dogs; cited from earlier work

Substance: Exendin-4(1-39)
- effect on 24-hour glucose profiles (Glucose 24h AUC, two-way ANOVA interaction term) [1]: synergistic (greater than additive) effects
- effect on HbA1c (delta HbA1c, two-way ANOVA interaction term) [1]: synergistic (greater than additive) effects
- insulin release and blood glucose level [2]: stimulate insulin release and ensuing lowering of the blood glucose level
